The text below walks through data of ChEMBL document CHEMBL3797127, “Design, synthesis and evaluation of pyrrolo[2,3-d]pyrimidine-phenylamide hybrids as potent Janus kinase 2 inhibitors” (Bioorg Med Chem Lett, 2016).

Data set [1] deals with T1, Tyrosine-protein kinase JAK3 (Homo sapiens, UniProt P52333).
T1 sequence (P52333 whole entry): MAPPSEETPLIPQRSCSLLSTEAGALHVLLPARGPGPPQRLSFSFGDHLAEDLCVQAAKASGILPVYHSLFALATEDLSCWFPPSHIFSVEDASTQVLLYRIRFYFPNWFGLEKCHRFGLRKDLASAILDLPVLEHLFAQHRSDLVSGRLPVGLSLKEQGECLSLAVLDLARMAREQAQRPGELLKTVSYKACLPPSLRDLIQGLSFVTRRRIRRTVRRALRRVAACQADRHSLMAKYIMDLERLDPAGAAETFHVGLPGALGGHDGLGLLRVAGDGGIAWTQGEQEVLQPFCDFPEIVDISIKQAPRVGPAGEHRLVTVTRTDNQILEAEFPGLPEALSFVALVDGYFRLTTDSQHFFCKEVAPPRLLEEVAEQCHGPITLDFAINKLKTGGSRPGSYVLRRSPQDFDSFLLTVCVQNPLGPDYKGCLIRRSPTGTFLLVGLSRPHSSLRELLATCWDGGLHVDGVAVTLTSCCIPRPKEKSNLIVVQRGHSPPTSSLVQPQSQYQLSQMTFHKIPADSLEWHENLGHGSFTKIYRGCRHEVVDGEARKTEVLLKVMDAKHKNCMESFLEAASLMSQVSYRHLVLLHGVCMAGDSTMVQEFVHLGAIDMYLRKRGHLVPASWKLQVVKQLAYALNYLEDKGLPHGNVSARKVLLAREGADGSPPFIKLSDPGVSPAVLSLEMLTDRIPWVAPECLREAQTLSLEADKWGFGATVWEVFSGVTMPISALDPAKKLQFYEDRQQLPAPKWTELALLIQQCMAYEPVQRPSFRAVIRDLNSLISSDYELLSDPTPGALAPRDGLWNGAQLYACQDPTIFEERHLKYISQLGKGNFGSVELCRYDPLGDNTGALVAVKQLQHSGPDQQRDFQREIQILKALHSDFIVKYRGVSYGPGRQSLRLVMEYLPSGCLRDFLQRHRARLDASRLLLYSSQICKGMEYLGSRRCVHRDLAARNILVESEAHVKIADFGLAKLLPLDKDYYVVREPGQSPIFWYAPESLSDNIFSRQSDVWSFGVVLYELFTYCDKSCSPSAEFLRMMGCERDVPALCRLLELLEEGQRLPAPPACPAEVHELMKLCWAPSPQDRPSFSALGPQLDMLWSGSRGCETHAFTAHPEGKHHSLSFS
Description: Inhibition of recombinant human GST-tagged JAK3 expressed in baculovirus expression system using Z'-LYTE Try6 peptide as substrate incubated for 1 hr by Z'-LYTE assay

A short description of data set [2]: in vivo. The settings on record: Sprague-Dawley, rat, po, 10 mg/kg.
Data set [3] can be described thus: in vivo. The settings on record: Sprague-Dawley, rat, po, 10 mg/kg. This is another data set of the same source.
The nature of data set [4]: in vivo. The settings on record: Sprague-Dawley, rat, iv, 4 mg/kg.
A short description of data set [5]: in vivo. The settings on record: Sprague-Dawley, rat, iv, 4 mg/kg. The source holds these as a separate data set.
A short description of data set [6]: in vivo. The settings on record: Sprague-Dawley, rat, po, 10 mg/kg. The source holds these as a separate data set.
Data set [7] in a line: in vivo. The settings on record: Sprague-Dawley, rat, iv, 4 mg/kg. This is another data set of the same source.
Description: Half life in Sprague-Dawley rat at 4 mg/kg, iv administered as bolus dose
Data set [8] can be described thus: in vivo. The settings on record: Sprague-Dawley, rat, po, 10 mg/kg. The source holds these as a separate data set.
Data set [9] in a line: in vivo. The settings on record: Sprague-Dawley, rat, iv, 4 mg/kg. The source holds these as a separate data set.
Data set [10] in a line: in vivo. The settings on record: Sprague-Dawley, rat, po, 10 mg/kg. The source holds these as a separate data set.
Description: Half life in Sprague-Dawley rat at 10 mg/kg, po administered through gavage
The nature of data set [11]: in vivo. The settings on record: Sprague-Dawley, rat, iv, 4 mg/kg. The source holds these as a separate data set.

Usually IC50 stands for the point on the concentration scale where inhibition reaches its midpoint. Higher therefore signals lower potency. In turn, `Cn1c(C(=O)NCCN2CCCC2)cc2c(-c3ccc(NC(=O)[C@@H]4CCCN4C(=O)OC(C)(C)C)cc3)ncnc21` displayed a half-inhibitory concentration (IC50) in data set [1] of 716 nM.

For `Cn1c(C(=O)NCCCN2CCOCC2)cc2c(-c3ccc(NC(=O)[C@@H]4CCCN4C(=O)OC(C)(C)C)cc3)ncnc21`, the IC50 in data set [1] was 507 nM. This IC50 and that of the compound before are within 1.5-fold of each other.

As for `Cn1c(C(=O)NCCN2CCCC2)cc2c(-c3ccc(NC(=O)C(C)(C)C)cc3)ncnc21`, the IC50 in data set [1] stood at 953 nM.

Usually Cmax stands for the maximum level reached in the sampled fluid or tissue. In general, Tmax refers to the time from dosing to the highest level. The AUC(0-t) is exposure summed from dosing to a finite time, without extrapolation to infinity. A lower AUC(0-t) goes with low exposure. What is called clearance is a measure of how efficiently the substance is removed, as volume per time. Low readings indicate inefficient removal, high ones efficient removal. Usually half-life stands for how long it takes for the measured level to halve. Low values mean rapid decline, high ones slow decline. As a reminder, the bioavailability is dose-corrected exposure relative to a reference, in per cent. Higher therefore signals much systemic uptake. A word on the Vd: it is a proportionality between amount in the body and measured concentration, not a real space. On to `Cn1c(C(=O)NCCCN2CCOCC2)cc2c(-c3ccc(NC(=O)C(C)(C)C)cc3)ncnc21`, for which the peak concentration (Cmax) was 6140 ng/mL in the data set “in vivo [2]” and 9730 ng/mL in “in vivo [9]”. Also, in “in vivo [3]”, the time to peak (Tmax) came out at 4 h. Also, the results for the AUC(0-t) at 24 h in the data set “in vivo [4]” and in “in vivo [6]” were 19700 ng·h/mL and 36300 ng·h/mL, respectively. The same compound gave a clearance in the data set “in vivo [5]” of 3.3 mL/min/kg. The results for the half-life in “in vivo [7]” and in the data set “in vivo [10]” were 2.09 h and 2.32 h, respectively. In the data set “in vivo [8]”, this compound yielded a bioavailability of 73.6%. This compound registered an IC50 in data set [1] of 584 nM. Further, the volume of distribution (Vd) in the data set “in vivo [11]” turned out to be 0.612 L/kg.
